Assay results published in patent publication US8592173B2, “Cancer diagnosis by measuring polyisoprenylated methylated protein methyl esterase activity” (Florida Agricultural and Mechanical University, priority 2011, dated 2013).

Tested on: PMPMEase
Test: Inhibition of PMPMEase by drugs, curcumin, fatty acids and prostaglandins
Type: biochemical
Details: for concentrations at which PMPMEase is inhibited: concentration range stated in words only

Compound | concentrations at which PMPMEase is inhibited | also measured
O=P1(N(CCCl)CCCl)NCCCO1 (stereo not drawn) [cyclophosphamide] | millimolar concentrations | –
CCCCC/C=C\C/C=C\C/C=C\C/C=C\CCCC(=O)O [arachidonic acid] | micromolar concentrations | –
CCCCC[C@H](O)/C=C/[C@H]1C=CC(=O)[C@@H]1C/C=C\CCCC(=O)O [Prostaglandin (PG) A2] | – | fold less potent than AA as PMPMEase inhibitor (relative to arachidonic acid (AA)): 63 fold
CC/C(=C(\c1ccccc1)c1ccc(OCCN(C)C)cc1)c1ccccc1 [tamoxifen] | millimolar concentrations | –
COc1cc(/C=C/C(=O)CC(=O)/C=C/c2ccc(O)c(OC)c2)ccc1O [curcumin] | micromolar concentrations | –
CCCCC[C@H](O)/C=C/[C@H]1[C@H](O)CC(=O)[C@@H]1C/C=C\CCCC(=O)O [PGE2] | – | inhibition of PMPMEase at 1 mM (1 mM): did not inhibit
